Laboratory results from patent US11130960B2, “Methods for conferring or enhancing herbicide resistance on plants and/or alga with protoporphyrinogen oxidase variants” (FARM HANNONG CO., LTD., priority 2014, dated 2021).
“Also recorded” adds a separate entry of the source.

Columns and labels:
[1] = tested on: CyPPO8 transformants; test: Seed germination / growth on ½ MS medium containing herbicide; assay type: in vivo, Arabidopsis thaliana; details: for germination / growth on herbicide medium after 2 weeks: ½ MS medium with 70 nM Tiafenacil
Method: (§1) To examine tiafenacil resistance of T2 generation seeds which survived under treatment of 1 μM tiafenacil, among the CyPPO2 and CyPPO8 transformants, Arabidopsis thaliana seeds were sown in ½ MS medium (1.125 g/L of MS salt, 10 g/L of sucrose, 7 g/L of Agar) containing 70 nM tiafenacil. […] Therefore, survival under 70 nM tiafenacil means that a plant has resistance against tiafenacil.
(§2) In Arabidopsis thaliana transformant including CyPPO2 or CyPPO8 gene, which was obtained by transformation using the plant transformation vector prepared in Example 6, the PPO activity-inhibiting herbicide-resistant gene and glufosinate-resistant gene are expressed at the same time. Therefore, it was examined whether cross-treatment of Arabidopsis thaliana transformant with two herbicides, namely, PPO activity-inhibiting herbicide and glufosinate is effective for weed control. To this end, seeds of CyPPO2 and BAR gene-inserted Arabidopsis thaliana transformant, or CyPPO8 and BAR gene-inserted Arabidopsis thaliana transformant were sterilized and treated at low temperature of 4° C. for 2 days. The seeds were sown in a ½ MS medium (Duchefa), a ½MS medium containing 70 nM Tiafenacil, a ½MS medium containing 50 uM glufosinate, or a ½MS medium containing 70 nM Tiafenacil and 50 uM glufosinate, and grown at 23° C. under 16 hour-light/8 hour-dark conditions for 7-14 days. Arabidopsis thaliana on the herbicide media was CyPPO2 or CyPPO8-transformed seed and the wild-type Col0 as a control, respectively. The transformant and the control were cultured on herbicide media. After 2 weeks, they were examined.
(§3) In Example 9, it was confirmed that Arabidopsis thaliana transformant prepared in the present invention has resistance against the two PPO-based herbicides, Tiafenacil and Saflufenacil at the same time, and therefore, it was tested whether the cross-treatment of Arabidopsis thaliana transformant with Tiafenacil and Saflufenacil is effective for weed control. To this end, seeds of CyPPO2 or CyPPO8 gene-inserted Arabidopsis thaliana transformant were sterilized and treated at low temperature of 4° C. for 2 days. The seeds were sown in a ½ MS medium, a ½MS medium containing 70 nM Tiafenacil, a ½MS medium containing 70 nM Saflufenacil, or a ½MS medium containing 35 nM Tiafenacil and 35 nM Saflufenacil, and grown at 23° C. under 16 hour-light/8 hour-dark conditions for 7-14 days. Arabidopsis thaliana on the herbicide media was CyPPO2 or CyPPO8-transformed seed and the wild-type Col0 as a control, respectively. The transformant and the control were cultured on herbicide media. After 2 weeks, they were examined.

[2] = tested on: CyPPO2 transformants; test: as above; assay type: in vivo, Arabidopsis thaliana; details: for germination / growth on herbicide medium after 2 weeks: ½ MS medium with 70 nM Tiafenacil
Method: as §1, §2, §3

[3] = tested on: wild-type Arabidopsis thaliana (Col-0); test: as above; assay type: in vivo; details: for germination / growth on herbicide medium after 2 weeks: ½ MS medium with 70 nM Tiafenacil
Method: as §1, §2, §3

[4] = tested on: Halothece sp. PCC 7418 strain; test: Herbicide resistance test of Halothece sp. PCC 7418 strain in CRBIP medium; assay type: cell-based; details: 8 days after treatment, CRBIP Medium 1538
Method: Halothece sp. PCC 7418 strain was cultured in CRBIP Medium 1538 (Institut Pasteur, France). CRBIP Medium 1538 is a mixed medium of ASNIII and Turks Island Salts 4× at a ratio of 1:1(v/v), and ASNIII medium was composed of 25.0 g of NaCl, 3.5 g of MgSO4.7H2O, 2.0 g of MgCl2.6H2O, 0.5 g of KCl, 0.5 g of CaCl2.2H2O, 0.75 g of NaNO3, 0.02 g of K2HPO4.3H2O, 0.04 g of NaCO3, 2.5 ml of ammonium iron(III) citrate/citric acid monohydrate solution [a mixture of 300 mg of ammonium iron(III) citrate, 300 mg of citric acid monohydrate, and 250 ml of distilled water], 2.5 ml of magnesium titriplex dihydrate solution [a mixture of 0.1 g of Mg EDTA and 500 ml of distilled water], 1 ml of trace metal A5+Co [a mixture of 2.86 g of H3BO3, 1.81 g of MnCl2.4H2O, 0.222 g of ZnSO4.7H2O, 0.39 g of NaMoO4.2H2O, 0.079 g of CuSO4.5H2O, 0.049 g of Co(NO3)2.6H2O and 1000 ml of distilled water], and 1000 ml of distilled water. Turks Island Salts 4× was composed of 112 g of NaCl, 2.68 g of KCl, 22 g of MgCl2.6 H2O, 27.7 g of MgSO4.7 H2O, 5.8 g of CaCl2.2 H2O, and 1000 ml of distilled water. ASNIII medium and Tursk Island Salts 4× were autoclaved at 120° C. for 20 minutes, respectively and then mixed at a ratio of 1:1(v/v).
5 ml of the above culture medium was added to a test tube, and 2 or 10 μM of Tiafenacil was added thereto or not. The seed-cultured Halothece sp. […]

[5] = tested on: mutant AtPPO1 transformant; test: Seed germination on ½ MS medium containing herbicide; assay type: in vivo, Arabidopsis thaliana; details: ½ MS medium containing 70 nM tiafenacil
[6] = 70 nM Saflufenacil, or 35 nM Tiafenacil and 35 nM Saflufenacil

Row | SMILES | germination / growth on herbicide medium after 2 weeks [1, 6] | germination / growth on herbicide medium after 2 weeks [2, 6] | germination / growth on herbicide medium after 2 weeks [3, 6] | concentration at which growth of the strain was maintained [4] | seed germination [5] | germination / growth on herbicide medium after 2 weeks ([1]; CyPPO8 and BAR gene-inserted, 50 uM glufosinate, or both) | seed germination ([1]; ½ MS medium containing 70 nM tiafenacil, T2 generation lines no. 6, 16 and 40) | germination / growth on herbicide medium after 2 weeks ([2]; CyPPO2 and BAR gene-inserted, 50 uM glufosinate, or both) | seed germination ([2]; ½ MS medium containing 70 nM tiafenacil, T2 generation lines no. 1 and 49) | seed germination ([3]; ½ MS medium containing 50 nM tiafenacil) | seed germination ([3]; ½ MS medium containing 70 nM tiafenacil) | germination / growth on herbicide medium after 2 weeks ([3]; 50 uM glufosinate, or 70 nM Tiafenacil and 50 uM glufosinate)
1 | CC(C)N(C)S(=O)(=O)NC(=O)c1cc(-n2c(=O)cc(C(F)(F)F)n(C)c2=O)c(F)cc1Cl [Saflufenacil] | normally grew | normally grew | not germinated |  |  |  |  |  |  |  |  | 
2 | COC(=O)CCNC(=O)C(C)Sc1cc(-n2c(=O)cc(C(F)(F)F)n(C)c2=O)c(F)cc1Cl (stereo not drawn) [Tiafenacil] | normally grew | normally grew | not germinated | 10 µM | showed germination | normally grew | showed germination | normally grew | showed germination | reduced seed germination | no normal seed germination and was killed; also recorded: showed no germination | not germinated
